Entries after “also recorded” stand apart in the source; their conditions may differ. Like-named read-outs stand apart in the source and are kept apart here.
Legend:
[1] = system: lice eggs; experiment: whole plant or invertebrate; assay type: in vivo; details: for inhibition at 10000 µM / inhibition at 2500 µM / inhibition at 5000 µM: read-out: Percent inhibition of egg hatching; for inhibition at 2500 µM: 2.5 mM; for inhibition at 5000 µM: 5 mM
[2] = system: Plutella xylostella eggs; experiment: whole plant or invertebrate; assay type: in vivo; details: for Number hatched / Number unhatched: dipped 2-10 s, day 6 post laying
Method: The ovicidal efficacy of 2-acetyl-1-tetralone was also tested against Plutella eggs.

[3] = system: Lice (L) and Plutella (P) eggs; experiment: whole plant or invertebrate; details: read-out: Ovicidal activity %
[4] = system: Helicoverpa armigera eggs; experiment: Egg hatching of Helicoverpa armigera
Method: A range of concentrations were made up in water and the eggs placed in the solutions for approximately 2-10 seconds. The eggs which had been laid on cloth were then blotted dry and placed in an incubator at 26° C. for 3-4 days until hatch. Hatch rates were then assessed compared to a water only treated control (FIG. 5).
The compound was dissolved in 100% diethoxyglycol and diluted to a final concentration of 1% in water.
Several hundred Helicoverpa armigera eggs (Tatura×Toowoomba strains) were collected, that had been laid on fine mesh cloth over a 24 hour period.
Batches of Helicoverpa eggs were exposed to a specific inhibitor solution for between 2-10 seconds the excess solution drained by blotting with dry tissue paper. The egg masses were then placed in a humid box at 25 degrees until egg hatch. Control eggs were exposed to absolute methanol as described above. At day 6 post laying the eggs were assessed from the different treatments and the percentage of egg hatch determined relative to the control as shown in Table 12.
Batches of Helicoverpa eggs were then exposed to a specific inhibitor solution for between 2-10 seconds the excess solution drained by blotting with dry tissue paper. The egg masses were then placed in a humid box at 25° C. until egg hatch. Control eggs were exposed to absolute methanol as described above. At day 6 post laying the eggs were assessed from the different treatments and the percentage of egg hatch determined relative to the control as shown in Table 13.

[5] = Pediculus humanus, 24 h, treated 24 hr post egg laying
[6] = Pediculus humanus, 48 h, treated 48 hr post egg laying
[7] = Pediculus humanus, 72 h, treated 72 hr post egg laying
[8] = Pediculus humanus, 96 h, treated 96 hr post egg laying
[9] = Pediculus humanus, 120 h, treated 120 hr post egg laying
[10] = Pediculus humanus, 144 h, treated 144 hr post egg laying

## c1cnc2c(c1)ccc1cccnc12 [1,10-phenanthroline, reference compound]
[1]; 10 mM, then 1 minute wash
  inhibition of lice egg hatching following washing of eggs in water: still highly efficacious at inhibiting lice egg hatching
[1]; 10 mM, a proportion of eggs
  embryo development in treated eggs: had embryos that appeared to develop normally yet failed to hatch
[1]; 10 mM, eggs treated 5 days post laying, 10 min
  inhibition of egg hatching in lice: significantly inhibited egg hatching
[1]; Pediculus humanus, 1 mM, eggs treated 5 days post laying, 10 min, read-out: level of inhibition of egg hatching compared to controls
  inhibition at 1000 µM: ~30%
[1]; Pediculus humanus, 10 mM, 10 minutes, not washed, treated 24 hr post laying
  inhibition at 10000 µM: 100%
[1]; Pediculus humanus, 10 mM, 10 minutes, not washed, treated 48 hr post laying
  inhibition at 10000 µM: 100%
[1]; Pediculus humanus, 10 mM, 10 minutes, not washed, treated 72 hr post laying
  inhibition at 10000 µM: 100%
[1]; Pediculus humanus, 10 mM, 10 minutes, not washed, treated 96 hr post laying
  inhibition at 10000 µM: 100%
[1]; Pediculus humanus, 10 mM, 10 minutes, not washed, treated 120 hr post laying
  inhibition at 10000 µM: 100%
[1]; Pediculus humanus, 10 mM, 10 minutes, washed for 1 minute, treated 24 hr post laying
  inhibition at 10000 µM: 100%
[1]; Pediculus humanus, 10 mM, 10 minutes, washed for 1 minute, treated 48 hr post laying
  inhibition at 10000 µM: 100%
[1]; Pediculus humanus, 10 mM, 10 minutes, washed for 1 minute, treated 72 hr post laying
  inhibition at 10000 µM: 100%
[1]; Pediculus humanus, 10 mM, 10 minutes, washed for 1 minute, treated 96 hr post laying
  inhibition at 10000 µM: 97%
[1]; Pediculus humanus, 10 mM, 10 minutes, washed for 1 minute, treated 120 hr post laying
  inhibition at 10000 µM: 62%
[1]; [5]
  inhibition at 2500 µM: 100%
  inhibition at 5000 µM: 100%
[1]; Pediculus humanus, 24 h, 10 mM, treated 24 hr post egg laying
  inhibition at 10000 µM: 100%
[1]; [6]
  inhibition at 2500 µM: 100%
  inhibition at 5000 µM: 100%
[1]; Pediculus humanus, 48 h, 10 mM, treated 48 hr post egg laying
  inhibition at 10000 µM: 100%
[1]; [7]
  inhibition at 2500 µM: 85%
  inhibition at 5000 µM: 100%
[1]; Pediculus humanus, 72 h, 10 mM, treated 72 hr post egg laying
  inhibition at 10000 µM: 100%
[1]; [8]
  inhibition at 2500 µM: 85%
  inhibition at 5000 µM: 100%
[1]; Pediculus humanus, 96 h, 10 mM, treated 96 hr post egg laying
  inhibition at 10000 µM: 100%
[1]; [9]
  inhibition at 2500 µM: 89%
  inhibition at 5000 µM: 93%
[1]; Pediculus humanus, 120 h, 10 mM, treated 120 hr post egg laying
  inhibition at 10000 µM: 100%
[1]; [10]
  inhibition at 2500 µM: 60%
  inhibition at 5000 µM: 96%
[1]; Pediculus humanus, 144 h, 10 mM, treated 144 hr post egg laying
  inhibition at 10000 µM: 100%
[1]; added within 24 hours of hatching
  inhibition of egg hatching: variable inhibition of egg hatching
[1]; varying concentrations (10, 5, 2.5 mM), 24-144 hr post egg laying
  inhibition of lice egg hatching in time-course experiments: Significant inhibition; also recorded: significantly inhibit egg hatching in lice at all time points examined
[2]; 10 mM
  effect on egg hatching of Plutella xylostella (words): significantly inhibit egg hatching
[2]; Plutella xylostella, Table 9, 1 mM, relative to control (100% MeOH), read-out: % Inhibition
  inhibition at 1000 µM: 0%
[2]; Plutella xylostella, Table 9, 10 mM, relative to control (100% MeOH), read-out: % Inhibition
  inhibition at 10000 µM: 100%
[2]; Table 9, 1 mM
  Number hatched: 15
  Number unhatched: 16
[2]; Table 9, 10 mM
  Number hatched: 0
  Number unhatched: 45
[3]
  inhibition at 10000 µM: 100%
[4]; 10 mM
  effect on egg hatching of Helicoverpa armigera (words): able to inhibit egg hatching
[4]; Helicoverpa armigera
  inhibition at 1000 µM: 0%
  inhibition at 10000 µM: 44%
[4]; Table 12, 10 mM
  Number hatched: 31
  Number unhatched: 16
